In US20260335278A1, “PHYTOCHEMICAL FORMULATIONS FOR TREATING STRESS AND ANXIETY” (GBS GLOBAL BIOPHARMA, INC., priority 2022, published 2026):
“Also recorded” adds a separate entry of the source.

Assays:
zebrafish larvae [1] = test: Light/Dark Stress Response (5 min alternating pulses of dark and light for 30 min); type: in vivo; set-up: key to Light/Dark Stress Response: +: statistically significant increase; −−: statistically significant decrease
Experimental: (§1) The validation process for the phytochemicals derived from Piper methysticum, other Piper plant family members, and non-Piper medicinal plants and fungi includes testing the selected phytochemical drug candidates as singles, doubles, and triples in two complementary zebrafish models of stress and anxiety. These two complementary assays are the Light/Dark Stress Response test that is illustrated in FIG. 5 (after the 90 min study of the effect of the compounds and mixtures on Baseline Activity) and the Thigmotaxis assay, as illustrated in FIG. 61A and FIG. 61B, which is also known as the wall flower effect, like the social anxiety of humans. Zebrafish larvae show a clear and distinct pattern of swimming in response to rapidly alternating light and dark conditions in the Light/Dark Response testing, which trigger a flight or fight response and darting behavior indicative of great stress and anxiety. The Light/Dark testing uses a control group to automatically track, using an automatic tracking device, the larval behavior in response to dark to light conditions. The thigmotaxis assay also uses automatic tracking and appropriate controls. In multiple embodiments additional Zebrafish larvae are given various concentrations of the selected phytochemicals from Table 1 for tracking Light/Dark Responses or Thigmotactic behavioral changes in the treated zebrafish larvae. Table 2A and Table 2B summarize the results from both assays when the individual phytochemicals are exposed to the: Baseline Activity (90 minutes in the light), Light/Dark Stress Response (5 min alternating pulses of dark and light for 30 min.), and Thigmotaxis Activity (% of time in the light center of the chamber (anxiety inducing) versus % of time near the dark (soothing) wall).
(§2) The present invention includes a process to discover new pharmaceutical medicines for the treatment of stress, anxiety and anxiety-related disorders in a human. The preclinical testing included the effects of these 14 individual phytochemicals and 300 ratio-controlled mixtures of these phytochemicals in assays measuring the behavioral stress response patterns of zebrafish larvae. Larval behavior is assessed with at least one functional assay of stress or anxiety following acute exposure to each phytochemical sample formulated. Stereotypical basal activity patterns of zebrafish will be assessed to determine the potential side effects of the phytochemical samples in a concentration dependent manner for each compound on two zebrafish models of stress and anxiety: 1) the Light/Dark Stress Response (5 min alternating pulses of light and dark) in small to med well plates (96-48 well plates), and 2) Thigmotaxis assays in large well plates with 50% of the swimming surface colored dark around the margins of the well in large (24-12 well plates) will be assessed for their efficacy in testing the phytochemicals.
(§3) The discovery methods of the present invention include testing the effects of up to 20 phytochemicals and 40 mixtures of the phytochemicals on behavioral stress response patterns of zebrafish larvae. Larval behavior was assessed with an automated video tracking system following acute exposure to each phytochemical sample. Stereotypical basal activity patterns of larvae were assessed to determine the concentration dependent effect of each compound. A zebrafish model of thigmotaxis in large well plates (24-12 well plates) was assessed for their efficacy in testing the phytochemicals. In the discovery method, fertilized eggs were kept on a re-circulating system in baskets until use at 120 hpf (5 days). At 120 hpf, larvae were loaded into 48 well plates in buffered fish media and acclimated to the plate in a heated light incubator for 2 hours. Larvae were acutely exposed with drug or controls at a 10× concentration and the plate was quickly transferred to a behavioral tracking system. Acute behavioral run was 90 minutes (baseline activity) in the light followed by alternating 5 minute bins (total 2 hours). […]

[2] = Pharmacokinetics of piperine acting alone; type: in vivo
zebrafish larvae [3] = test: Thigmotaxis assay; type: in vivo; set-up: key: +: statistically significant increase; −−: statistically significant decrease
Experimental: as §1, §2, §3

zebrafish larvae [4] = test: Baseline activity / baseline exposure (90 min continuous light), zebrafish larvae; type: in vivo; set-up: key to Baseline Exposure: +: statistically significant increase; −−: statistically significant decrease
Experimental: as §1, §2, §3

zebrafish larvae [5] = test: Zebrafish models of stress and anxiety, overall verdict (Light/Dark Stress Response and thigmotaxis); type: in vivo; conditions: for Anti-Anxiety Potential?: API used singly
Experimental: as §1
Additionally, testing is done with mixtures of these same selected phytochemicals from P. methysticum and other plants selected by our in silico analyses. The testing results are analyzed using artificial intelligence systems to rank effectiveness in reducing the Light/Dark response and thigmotactic behavior for the
The A1 enabled drug discovery platform database search data was evaluated to select the best drug candidates from: A Piper methysticum, B. within the Piper plant family (>200 Piper spp.), or C. traditional medicines to begin testing […] (API) singles, doubles, and triples in two complementary zebrafish models of anxiety light/dark startle response testing and thigmotaxis assays.
as §2
The discovery methods of the present invention include testing the effects of up to 20 phytochemicals and 40 mixtures of the phytochemicals on behavioral stress response patterns of zebrafish larvae. Larval behavior was assessed with an automated video tracking system following acute exposure to each phytochemical sample. […]

MAO-B = conditions: cited from earlier work
MAO-A = conditions: cited from earlier work

Structure (SMILES) | Light/Dark Stress Response (zebrafish larvae [1]; High) | Light/Dark Stress Response (zebrafish larvae [1]; Med) | Light/Dark Stress Response (5 min light/dark pulses) (zebrafish larvae [1]; vehicle 1% MeOH) | pharmacokinetics [2] | Thigmotaxis Model (zebrafish larvae [3]; High) | Baseline Exposure (zebrafish larvae [4]; High) | Baseline Exposure (zebrafish larvae [4]; Low) | effect on the baseline activity (zebrafish larvae [4]; acting alone) | Anti-Anxiety Potential? (zebrafish larvae [5]) | Therapeutic Potential (zebrafish larvae [5]; vehicle 1% MeOH) | Light/Dark Stress Response (5 min light/dark pulses) (zebrafish larvae [1]; vehicle 0.5% MeOH) | Approx. Dose (cell or animal experiments), MAO-B (MAO-B) | Thigmotaxis Model (zebrafish larvae [3]; Med) | Baseline Exposure (zebrafish larvae [4]; Med) | baseline Activity (90 min light) (zebrafish larvae [4]; vehicle 0.5% MeOH) | baseline Activity (90 min light) (zebrafish larvae [4]; vehicle 1% MeOH) | Therapeutic Potential (zebrafish larvae [5]; vehicle 0.5% MeOH) | Approx. Dose (cell or animal experiments), MAO-A (MAO-A)
O=C(/C=C/C=C/c1ccc2c(c1)OCO2)N1CCCCC1 [piperine] | −− | −− | stress response is reduced | positive results | −− | + | −− | virtually no effect on the baseline activity | Yes | YES-top pick |  |  |  |  |  |  |  | 
COc1ccc(/C=C/c2cc(OC)cc(=O)o2)cc1 [yangonin] | −− |  | stress response is reduced |  | −− | + | + |  | Yes | Yes | stress response is reduced | MAO-B 0.085 μM | −− | + | baseline activity is close to controls; also recorded: (slight increase initially) | baseline activity is close to controls; also recorded: (slight increase initially) | Yes | MAO-A1.29 μM,
